Measurements reported in patent publication US8258098B2, “Antitumoral treatments” (Pharma Mar, S.A., priority 2006, dated 2012).

Test system: UACC-257 human melanoma cells
Assay: Antitumor efficacy against subcutaneous-implanted melanoma xenograft
Type: in vivo, female, athymic NCr-nu/nu mice
Settings: UACC-257 xenograft, median tumor weight; Aplidine 60 μg/kg/dose IP q1d × 9, Carboplatin 50 mg/kg/dose IV q4d × 3
Method: The animals were housed in microisolator cages, up to five per cage in a 12-hour light/dark cycle. Six-weeks-old female, athymic NCr-nu/nu mice were acclimated in the laboratories for one week prior to the experiment.
Each mouse was inoculated subcutaneously near the right flank with UACC-257 human melanoma cells from an in vitro cell culture using a 23-gauge needle. Each mouse received 2×10^7 cells resuspended in 0.2 mL of Matrigel®. A vial with UACC-257 human melanoma frozen cells was thawed and cultured in RPMI 1640 medium containing low glucose (2,000 mg/L), sodium bicarbonate ([…]), 2 mM L-glutamine, and 10% fetal bovine serum (complete medium), and grown in a +37° C. incubator in a humidified atmosphere with 5% CO2 until the necessary number of cells for inoculation of mice was obtained. Cells were harvested after four passages in culture. […] The cell count and viability were determined with a Beckman Coulter VI CELL XR cell counter and viability analyzer. […]
Animals were observed daily and clinical signed were noted. The s.c. tumors were measured and the animals were weighed twice weekly starting with the first day of treatment, Day 13. Tumor volume was determined by caliper measurements (mm) and using the formula for an ellipsoid sphere: L×W^2/2=mm^3, where L and W refer to the larger and smaller perpendicular dimensions collected at each measurement. […]

N.N.O=C([O-])C1(C(=O)[O-])CCC1.[Pt+2] [carboplatin]
% T/C on day 23: 95% | % T/C on day 70: 60%
